Data published in ChEMBL document CHEMBL1201862, “PubChem BioAssay data set” (2004).
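48-hour exposure; five concentrations; linearly interpolated endpoints. GI50: concentration for 50% inhibition of growth.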 Calls of active or inactive are those of the source. Rule as the data show it: active = GI50 up to about 1.1 µM and inactive = higher.

What was measured:
Assay in all cases: NCI-60 cell line screen, 48 h
OVCAR-8 = test system: OVCAR-8
NCI-H226 = test system: NCI-H226
LOX IMVI = test system: LOX IMVI
MDA-MB-231 = test system: MDA-MB-231
EKVX = test system: EKVX
M14 = test system: M14
HOP-92 = test system: HOP-92
A549 = test system: A549
COLO 205 = test system: COLO 205
SNB-19 = test system: SNB-19
MOLT-4 = test system: MOLT-4
DU-145 = test system: DU-145
SF-295 = test system: SF-295
T47D = test system: T47D
Malme-3M = test system: Malme-3M
NCI-H522 = test system: NCI-H522
NCI-H460 = test system: NCI-H460
TK-10 = test system: TK-10
MDA-N = test system: MDA-N

Measured: GI50

CO[C@@]12C[C@H](CNC(=O)c3ccc[nH]3)O[C@@H]1NC(=O)N2
inactive: OVCAR-8 > 100 µM | NCI-H226 > 100 µM | LOX IMVI > 100 µM | MDA-MB-231 > 100 µM | EKVX > 100 µM | M14 > 100 µM | HOP-92 > 100 µM | A549 > 100 µM | COLO 205 > 100 µM | SNB-19 > 100 µM | MOLT-4 > 100 µM | DU-145 > 100 µM | SF-295 > 100 µM | T47D > 100 µM | Malme-3M > 100 µM | NCI-H522 > 100 µM | NCI-H460 > 100 µM | TK-10 > 100 µM

Cc1ccc(C)n2c1nc1ccc3ccccc3c12
inactive: OVCAR-8 > 100 µM | NCI-H226 > 100 µM | EKVX 27.9 µM | M14 > 100 µM | HOP-92 40.6 µM | A549 > 100 µM | COLO 205 > 100 µM | SNB-19 > 100 µM | MOLT-4 > 100 µM | DU-145 > 100 µM | SF-295 > 100 µM | MDA-N > 100 µM | T47D 45 µM | Malme-3M > 100 µM | NCI-H460 > 100 µM | TK-10 > 100 µM

Cc1cc2nc3[nH]nc(N)c3nc2cc1C
inactive: OVCAR-8 88.7 µM | NCI-H226 17.7 µM | LOX IMVI > 100 µM | MDA-MB-231 > 100 µM | EKVX 31.4 µM | M14 > 100 µM | HOP-92 > 100 µM | A549 > 100 µM | COLO 205 44.4 µM | SNB-19 > 100 µM | MOLT-4 > 100 µM | DU-145 36.6 µM | SF-295 > 100 µM | MDA-N > 100 µM | Malme-3M > 100 µM | NCI-H522 > 100 µM | NCI-H460 > 100 µM | TK-10 > 100 µM

CS/C(=N\Nc1cnc2ccccc2n1)NS(=O)(=O)c1cc(C)c(Cl)cc1Cl
inactive: OVCAR-8 > 100 µM | NCI-H226 > 100 µM | LOX IMVI 61.1 µM | MDA-MB-231 44.2 µM | EKVX 29 µM | M14 > 100 µM | HOP-92 15.5 µM | A549 > 100 µM | COLO 205 > 100 µM | SNB-19 > 100 µM | MOLT-4 > 100 µM | DU-145 > 100 µM | SF-295 > 100 µM | T47D > 100 µM | Malme-3M > 100 µM | NCI-H522 > 100 µM | NCI-H460 > 100 µM | TK-10 82 µM

Cc1cc2c(cc1Cl)SC(c1ccccc1O)NS2(=O)=O (centres undefined)
inactive: OVCAR-8 > 100 µM | NCI-H226 86.5 µM | LOX IMVI 43.8 µM | MDA-MB-231 32.4 µM | EKVX 56.9 µM | M14 57 µM | HOP-92 54.1 µM | A549 > 100 µM | COLO 205 20.8 µM | SNB-19 81.3 µM | MOLT-4 12.5 µM | DU-145 33.9 µM | SF-295 > 100 µM | T47D 6.95 µM | Malme-3M 24.4 µM | NCI-H522 48.9 µM | NCI-H460 92 µM | TK-10 > 100 µM

O=[N+]([O-])c1ccc(SN=S=NSc2cccc(SN=S=NSc3ccc([N+](=O)[O-])cc3)c2)cc1
inactive: OVCAR-8 22.4 µM | LOX IMVI 17.2 µM | EKVX 39.3 µM | M14 37 µM | HOP-92 > 100 µM | A549 46.5 µM | COLO 205 46.5 µM | SNB-19 38.5 µM | MOLT-4 10.2 µM | SF-295 44.3 µM | MDA-N 30.8 µM | T47D 11.1 µM | Malme-3M 28.1 µM | NCI-H522 15.8 µM | NCI-H460 31 µM

S=C(N/N=C(\C(=N/NC(=S)N1CCCCC1)c1ccccn1)c1ccccn1)N1CCCCC1
inactive: OVCAR-8 27.9 µM | NCI-H226 26.3 µM | LOX IMVI 20.2 µM | MDA-MB-231 > 100 µM | EKVX 80 µM | M14 15.2 µM | HOP-92 64.3 µM | A549 31.1 µM | COLO 205 6.38 µM | SNB-19 30.3 µM | MOLT-4 8.53 µM | DU-145 14.9 µM | SF-295 34.8 µM | MDA-N 57.8 µM | Malme-3M 17.3 µM | NCI-H522 9.18 µM | NCI-H460 14 µM | TK-10 19.4 µM

Cc1cc(Br)cc(C)c1NC(=O)C(=O)Nn1c(S)nc2ccccc2c1=O
inactive: OVCAR-8 > 100 µM | NCI-H226 > 100 µM | LOX IMVI > 100 µM | MDA-MB-231 > 100 µM | EKVX > 100 µM | M14 > 100 µM | HOP-92 > 100 µM | A549 > 100 µM | SNB-19 78.9 µM | MOLT-4 > 100 µM | SF-295 > 100 µM | MDA-N > 100 µM | T47D > 100 µM | Malme-3M > 100 µM | NCI-H522 > 100 µM | NCI-H460 > 100 µM | TK-10 > 100 µM

CO/C(=N\N=C\c1ccc(OC)cc1OC)c1ccncc1
inactive: OVCAR-8 > 10 µM | NCI-H226 > 10 µM | LOX IMVI > 10 µM | A549 > 10 µM | COLO 205 > 10 µM | SNB-19 > 10 µM | MOLT-4 > 10 µM | SF-295 > 10 µM | T47D > 10 µM | Malme-3M > 10 µM | NCI-H460 > 10 µM | TK-10 > 10 µM

ClC1(Cl)C(c2ccccc2)C1c1ccccc1 (centres undefined)
inactive: OVCAR-8 21.2 µM | NCI-H226 14.6 µM | LOX IMVI 28.2 µM | MDA-MB-231 54.2 µM | EKVX 18.3 µM | M14 27.7 µM | A549 23 µM | COLO 205 36 µM | SNB-19 25.9 µM | MOLT-4 26.7 µM | DU-145 42.2 µM | SF-295 17.8 µM | MDA-N 5.32 µM | T47D 34.6 µM | NCI-H460 13.2 µM | TK-10 54 µM

N#CC(C#N)=C(N)/C(C#N)=C/c1ccc2[nH]ccc2c1
inactive: OVCAR-8 > 100 µM | NCI-H226 > 100 µM | LOX IMVI > 100 µM | EKVX > 100 µM | M14 > 100 µM | HOP-92 > 100 µM | A549 > 100 µM | COLO 205 > 100 µM | SNB-19 > 100 µM | MOLT-4 > 100 µM | DU-145 > 100 µM | SF-295 > 100 µM | MDA-N > 100 µM | T47D > 100 µM | Malme-3M > 100 µM | NCI-H522 97.3 µM | NCI-H460 > 100 µM | TK-10 > 100 µM

c1cn[nH]c1 [PYRAZOLE]
inactive: OVCAR-8 > 10 µM | NCI-H226 > 10 µM | LOX IMVI > 10 µM | EKVX > 10 µM | HOP-92 > 10 µM | A549 > 10 µM | COLO 205 > 10 µM | SNB-19 > 10 µM | MOLT-4 > 10 µM | SF-295 > 10 µM | MDA-N > 10 µM | T47D > 10 µM | Malme-3M > 10 µM | NCI-H460 > 10 µM | TK-10 > 10 µM
